Bridges are numbered along the chain shown (N, C = ends). Where no end group is shown, it is not given here.
What was measured:
[1] = tested on: DV4; type: cell-based, dengue virus; details: peptides 0.1 mg/ml; Vero cells
Description: (§1) DIII has one of the most variable regions of the exposed surface of protein E. In fact, one of the antigenic characteristics of this domain is that the antibodies obtained against this region are predominantly serotype-specific (Roehrig J T, Bolin R A, Kelly R G (1998) Monoclonal antibody mapping of the envelope glycoprotein of the dengue 2 virus, Jamaica Virology 246:317-28). However, during the inhibition assay with different DV serotypes, the peptides display a wide-spectrum inhibitory activity, efficiently inhibiting the infection of strains of the homologous, as well as of the heterologous serotypes (table 3). It is important to notice that at the assayed concentration (0.1 mg/ml) all the peptides in all the conditions, with the exception of peptide HIII4CL for DV3, produced higher than 50% inhibition levels.

[2] = tested on: DV3; type: cell-based, dengue virus; details: peptides 0.1 mg/ml; Vero cells
Description: as §1

[3] = tested on: DV2; type: cell-based, dengue virus; details: peptides 0.1 mg/ml; Vero cells
Protocol: (§2) FIG. 17. Inhibition of the infection of Vero cells with DV1 and DV2. (A) Six-well plates with a monolayer at approximately 90% confluence were incubated for 30 min. at 37° C. with dilutions of the peptides in MEM medium. A dilution of either DV1 strain West Pac 74 or DV2 strain S16803 was then added, calculated so as to obtain an average of 100 lytic plaques per well, and the plates were incubated for 30 min. at 37° C. with the virus/peptide mixture. After the incubation the cells were washed twice, received the addition of MEM medium supplemented with non-essential amino acids, 1% fetal calf serum, 1% CMC, and finally were incubated for 5 days at 37° C. under a CO2 atmosphere. (B) Inhibitory effect of the peptides at 100 μMol/L. NRpep: Non-related peptide. Data on the sequence of the peptides 3H5pept (SEQ ID. 27), pepDIII-1 (SEQ ID. 28), HIII2CL (SEQ ID. 5) and HIII3CL (SEQ ID. 7), as well as on the region they span on DIII from DV, can be obtained from FIG. 11. The calculation of the inhibition percentages is described in Materials and Methods. (C) Inhibition of DV2 infection by using varying peptide concentrations. The viral plaques were visualized by staining with Naphtol Blue Black. Cell control: Untreated cells. Virus control: Cells incubated with the virus, but without peptide.
as §1

[4] = tested on: DV1; type: cell-based, dengue virus; details: peptides 0.1 mg/ml; Vero cells
Protocol: as §2, §1

[5] = tested on: A2MR receptor; test: Effect of peptides on the binding of fluoresceinated A2M and RAPR13 to Vero cells (flow cytometry); type: cell-based, monkey; details: increasing peptide concentrations (FIG. 19)
Protocol: FIG. 19. Effect produced on the binding of A2M and RAPR13 to the surface of Vero cells by simultaneous incubation with the peptides. The fluoresceinated A2M and RAP13 proteins were incubated for 30 min. at 4° C. with pre-fixed Vero cells in the presence of varying concentrations of HIII2CL and 3H5pept in order to reach the indicated molar peptide/protein ratios. The binding of the labeled ligands was detected by flow cytometry.
In order to obtain a direct evidence of the interaction with the A2MR receptor, the effect of one of the designed peptides on the binding of the natural ligands of A2MR to Vero cells was investigated. The assay was performed with fluoresceinated A2M and RAPR13, measuring their binding to Vero cells in the presence of increasing concentrations of the HDIII2CL peptide. The amount of protein bound to the cells was estimated by flow cytometry, using recombinant human EGF (rhEGF) as a negative control for the experiment, since it is known that Vero cells express the EGF receptor in their surface (Copp J, Wiley S, Ward M W, van der Geer P (2005) Hypertonic shock inhibits growth factor receptor signaling, induces caspase-3 activation, and causes reversible fragmentation of the mitochondrial network. Am J Physiol Cell Physiol. 288:C403-15).

[6] = tested on: mAb 3H5; test: Recognition by mAb 3H5 in Western blotting / dot blotting; type: binding; details: signal lost upon reduction and carbamidomethylation
Description: FIG. 12. (A) Sequence of the peptides designed to mimic different regions on the surface of DIII. The residue numbering corresponds to the sequence for protein E of DV serotype 2, strain Jamaica 1409, available from the Swiss-Prot databank with access number P07564. The underlined residues are not present in protein E and were introduced during design. The cysteine residues are used to restrict the structural mobility of the peptide by a disulphide bridge. (B) Recognition of the HDIII2Cs peptide by the neutralizing antibody 3H5 in a Western blotting assay. 50 μg of the BSA-peptide conjugates and 20 μg of the recombinant protein PD5 were electrophoresed on a 12.5% SDS-PAGE gel and transferred to a nitrocellulose membrane. After blocking, the membrane was incubated with a dilution (30 μg/mL) of the 3H5 mAb for 2 hours at 25° C. The bound antibody was detected with an anti-mouse IgG-peroxidase conjugate, and the blots were developed using chemiluminescence. (C) Two pieces of nitrocellulose membrane were sensitized in parallel with 10 μg of each variant of the protein and of the peptides. […]
With the aim of evaluating the recognition of peptide HDIII2Cs by mAb 3H5, peptide-BSA conjugates were prepared and analyzed by Western blotting with this antibody (FIG. 12B). […]

[7] = tested on: DV; test: Inhibition of the infection of Vero cells with DV by pre-incubation of the virus with A2M; type: cell-based, dengue virus; details: incubation times with virus longer than 30 minutes (FIG. 20B)
Protocol: FIG. 20. Inhibition of the infection of Vero cells with DV by pre-incubation with A2M. Viral preparations were incubated 1 h at 25° C. (A and C) or the indicated time (B) with the proteins i. e. activated A2M (A2Mact), non-activated A2M (A2M no act) and a non-related protein (NR). The mixtures of the proteins with the virus were added to monolayers of Vero cells and incubated for 1 h at 37° C. The cell monolayers were washed to eliminate non-bound virus. Next, medium MEM supplemented with non-essential amino acids and 1% FBS, 1% CMC was added and the cells were incubated for 5 days at 37° C. in a CO2 incubator. To visualize the viral plaques, Vero cells were stained using Naphtol Blue Black. All experimental points were performed on duplicates.
To obtain further evidences of the interaction of DV with A2M, the two variants of the protein i.e. activated and non-activated were used in assays of inhibition of infection of Vero cells. The viral preparation was incubated with solutions of activated A2M of higher concentrations than the physiological concentrations reached by this variant of the protein. Solutions of equimolar concentration of non-activated A2M and a non-related protein were used as negative controls. […]

Molecule | degree of reduction of the number of viral plaques, DV4 [1] | degree of reduction of the number of viral plaques, DV3 [2] | degree of reduction of the number of viral plaques, DV2 [3] | degree of reduction of the number of viral plaques, DV1 [4] | amount of surface-bound RAPR13 [5] | recognition by mAb 3H5 [6] | increase of viral infection [7] [%]
3H5pept: peptide reported in the literature as part of the epitope recognized by mAb 3H5, SEQ ID. 27 (KAQLKLNWFKKGSS) [Peptide 3H5pept, reference compound] | − (Less than 10% decrease in the number of plaques) | − (Less than 10% decrease in the number of plaques) | − (Less than 10% decrease in the number of plaques) | − (Less than 10% decrease in the number of plaques) | does not produce variations |  | 
HDIII2Cs: cyclic peptide corresponding to Ile379-Lys388 from protein E of DV2, Seq. ID. 4 (CIIGVEPGQLKC-NH2; disulfide 1-12) | − (Less than 10% decrease in the number of plaques) | − (Less than 10% decrease in the number of plaques) | − (Less than 10% decrease in the number of plaques) | − (Less than 10% decrease in the number of plaques) |  | recognized by mAb 3H5 | 
non-activated A2M: non-activated variant of purified human A2M (protein) SVSGKPQYMVLVPSLLHTETTEKGCVLLSYLNETVTVSASLESVRGNRSLFTDLEAENDVLHCVAFAVPKSSSNEEVMFLTVQVKGPTQEFKKRTTVMVKNEDSLVFVQTDKSIYKPGQTVKFRVVSMDENFHPLNELIPLVYIQDPKGNRIAQWQSFQLEGGLKQFSFPLSSEPFQGSYKVVVQKKSGGRTEHPFTVEEFVLPKFEVQVTVPKIITILEEEMNVSVCGLYTYGKPVPGHVTVSICRKYSDASDCHGEDSQAFCEKFSGQLNSHGCFYQQVKTKVFQLKRKEYEMKLHTEAQIQEEGTVVELTGRQSSEITRTITKLSFVKVDSHFRQGIPFFGQVRLVDGKGVPIPNKVIFIRGNEANYYSNATTDEHGLVQFSINTTNVMGTSLTVRVNYKDRSPCYGYQWVSEEHEEAHHTAYLVFSPSKSFVHLEPMSHELPCGHTQTVQAHYILNGGTLLGLKKLSFYYLIMAKGGIVRTGTHGLLVKQEDMKGHFSISIPVKSDIAPVARLLIYAVLPTGDVIGDSAKYDVENCLANKVDLSFSPSQSLPASHAHLRVTAAPQSVCALRAVDQSVLLMKPDAELSASSVYNLLPEKDLTGFPGPLNDQDDEDCINRHNVYINGITYTPVSSTNEKDMYSFLEDMGLKAFTNSKIRKPKMCPQLQQYEMHGPEGLRVGFYESDVMGRGHARLVHVEEPHTETVRKYFPETWIWDLVVVNSAGVAEVGVTVPDTITEWKAGAFCLSEDAGLGISSTASLRAFQPFFVELTMPYSVIRGEAFTLKATVLNYLPKCIRVSVQLEASPAFLAVPVEKEQAPHCICANGRQTVSWAVTPKSLGNVNFTVSAEALESQELCGTEVPSVPEHGRKDTVIKPLLVEPEGLEKETTFNSLLCPSGGEVSEELSLKLPPNVVEESARASVSVLGDILGSAMQNTQNLLQMPYGCGEQNMVLFAPNIYVLDYLNETQQLTPEVKSKAIGYLNTGYQRQLNYKHYDGSYSTFGERYGRNQGNTWLTAFVLKTFAQARAYIFIDEAHITQALIWLSQRQKDNGCFRSSGSLLNNAIKGGVEDEVTLSAYITIALLEIPLTVTHPVVRNALFCLESAWKTAQEGDHGSHVYTKALLAYAFALAGNQDKRKEVLKSLNEEAVKKDNSVHWERPQKPKAPVGHFYEPQAPSAEVEMTSYVLLAYLTAQPAPTSEDLTSATNIVKWITKQQNAQGGFSSTQDTVVALHALSKYGAATFTRTGKAAQVTIQSSGTFSSKFQVDNNNRLLLQQVSLPELPGEYSMKVTGEGCVYLQTSLKYNILPEKEEFPFALGVQTLPQTCDEPKAHTSFQISLSVSYTGSRSASNMAIVDVKMVSGFIPLKPTVKMLERSNHVSRTEVSSNHVLIYLDKVSNQTLSLFFTVLQDVPVRDLKPAIVKVYDYYETDEFAIAEYNAPCSKDLGNA |  |  |  |  |  |  | ≤ 50
